Measurements taken from ChEMBL document CHEMBL1141838, “Application of lipase-catalyzed regioselective esterification in the preparation of digitonin derivatives” (J Nat Prod, 1999).

Assay: Toxic hemolytic activity against RBC assessed as hemolytic index
Type: ADME, cell-based
Settings: erythrocyte

| SMILES | Activity |
| --- | --- |
| C[C@@H]1CC[C@@]2(OC1)O[C@H]1[C@@H](O)[C@H]3[C@@H]4CC[C@H]5C[C@@H](O[C@@H]6O[C@H](CO)[C@H](O[C@@H]7O[C@H](CO)C(O)[C@H](O[C@@H]8OC[C@@H](O)[C@H](O)[C@H]8O)[C@H]7O[C@@H]7O[C@H](CO)[C@H](O)[C@H](O[C@@H]8O[C@H](CO)[C@@H](O)[C@H](O)[C@H]8O)[C@H]7O)[C@H](O)[C@H]6O)[C@H](O)C[C@]5(C)[C@H]4CC[C@]3(C)[C@H]1[C@@H]2C (some centres undefined) [DIGITONIN] | 135000 |
| CC(=O)OC[C@H]1O[C@@H](O[C@H]2[C@@H](O)[C@@H](CO)O[C@@H](O[C@H]3[C@H](O[C@@H]4C[C@@H]5CC[C@H]6[C@@H]7[C@H](O)[C@@H]8O[C@]9(CC[C@@H](C)CO9)[C@@H](C)[C@@H]8[C@@]7(C)CC[C@@H]6[C@@]5(C)C[C@H]4O)O[C@H](CO)[C@H](O[C@@H]4O[C@H](CO)[C@@H](O)[C@H](O[C@@H]5OC[C@@H](O)[C@H](O)[C@@H]5O)[C@H]4O)[C@@H]3O)[C@@H]2O)[C@H](O)[C@@H](O)[C@@H]1O | 40000 |
| CC(=O)O[C@@H]1CO[C@@H](O[C@@H]2[C@@H](O)[C@H](O[C@@H]3[C@H](O)[C@@H](O[C@@H]4O[C@H](CO)[C@H](O)[C@H](O[C@@H]5O[C@H](CO)[C@@H](O)[C@H](O)[C@H]5O)[C@H]4O)[C@H](O[C@@H]4C[C@@H]5CC[C@H]6[C@@H]7[C@H](O)[C@@H]8O[C@]9(CC[C@@H](C)CO9)[C@@H](C)[C@@H]8[C@@]7(C)CC[C@@H]6[C@@]5(C)C[C@H]4O)O[C@@H]3CO)O[C@H](CO)[C@H]2O)[C@@H](O)[C@H]1O | 52000 |
| CC(=O)OC[C@H]1O[C@@H](O[C@H]2[C@@H](O)[C@@H](CO)O[C@@H](O[C@H]3[C@H](O[C@@H]4C[C@@H]5CC[C@H]6[C@@H]7[C@H](O)[C@@H]8O[C@]9(CC[C@@H](C)CO9)[C@@H](C)[C@@H]8[C@@]7(C)CC[C@@H]6[C@@]5(C)C[C@H]4O)O[C@H](CO)[C@H](O[C@@H]4O[C@H](CO)[C@@H](O)[C@H](O[C@@H]5OC[C@@H](OC(C)=O)[C@H](O)[C@@H]5O)[C@H]4O)[C@@H]3O)[C@@H]2O)[C@H](O)[C@@H](O)[C@@H]1O | 43000 |
